Legend:
[1] = Cytotoxicity on Hep G2 cells; format: cell-based; details: human
Procedure: (§1) LogD Values at pH=7.0 were calculated in silico, while the in vitro tests analysed: • metabolic stability in cryopreserved human hepatocytes; • cytotoxicity on Hep G2 cells; • cassette pharmacokinetics in rat.
The cells were cultured for 3 days, trypsinized and re-suspended in 20 ml of culture medium. The cells were then counted and diluted to obtain a final concentration suitable for seeding 40.000 cells/well in 96-well cell culture plates (200 μl/well).
The cells were seeded in columns 1 to 11 (column 12 contained medium without cells), then placed for 16-24 hours at 37° C. with 5% of CO2.

TRPV1 = target: T1, TRPV1 (Rattus norvegicus, UniProt O35433); assay: Ca2+ fluorescence measurements in cultured rat trigeminal ganglia (capsaicin-evoked [Ca2+]i mobilization); format: cell-based; details: 30 nM capsaicin, rat trigeminal neuron cells; read-out: IC50 of inhibiting capsaicin-evoked [Ca2+]i mobilization
T1 construct: Ca^2+ Fluorescence Measurements in Cultured Rat Trigeminal Ganglia; endogenous in cells; host or cells: cultured rat trigeminal ganglion neurons (primary culture)
Procedure: The calibration curve was determined using a buffer containing Fura-2-AM-ester and definite concentrations of free Ca^2+. This curve was then used to convert the data obtained from F340/F380 ratio to [Ca^2+]i (nM) (Kudo, Y). The effects of pretreatments with compounds 6a-6m on the increase in [Ca^2]i produced by 30 nM capsaicin were studied.
Capsaicin (30 nM) increased [Ca^2+]i in the vast majority (95%) of rat trigeminal neuron cells, which were therefore identified as TRPV1-expressing neurons.

vanilloid TRPV1 receptor = target: T2, vanilloid TRPV1 receptor (Rattus norvegicus, UniProt O35433); assay: [3H]RTX radioligand binding assay in rat spinal cord membranes; details: displacement of [3H]RTX (0.4 nM), 37° C., 60 min
T2 construct: the spinal cord was removed and disrupted using a Polytron tissue homogenizer; from tissue; host or cells: spinal cord of male Sprague-Dawley rats (membranes)
Procedure: Male Sprague-Dawley rats with body weight between 250 to 350 g were used. For binding assays the rats were decapitated under anesthesia and the spinal cord was removed and disrupted using a Polytron tissue homogenizer in ice cold buffer containing 5 mM KCl, 5.8 mM NaCl, 0.75 mM CaCl2, 2 mM MgCl2, 320 mM sucrose, 10 mM Hepes, pH 8.6 (Szallasi and Blunberg, 1992; 1993). In competition experiments, the membranes were incubated at 37° C. for 60 min with [^3H]RTX (0.4 nM) and with increasing concentrations of test compounds in the range from 0.1 nM to 3 μM. Non-specific binding was evaluated in the presence of 1 μM RTX. Saturation and competition studies were analyzed with the Ligand program (Bradford, 1976; Munson and Rodbard, 1980).
Compounds 6a-6m displaced [^3H]RTX from its binding site in rat spinal cord membranes at low concentrations, as indicated by the Ki values reported in Table 1.

[2] = Preliminary cassette pharmacokinetic study in catheterized conscious rats; format: in vivo; details: plasma; rat, oral, cassette dosing; read-out: Pharmacokinetics in Rat Oral t1/2
Procedure: as §1
Compounds were administered together to rats. The compounds were stored at −20° C. when not used. The formulation, route of administration, plasma samples identification and pharmacokinetic analysis were performed according to standard protocols (Raynaud, F I et al, 2004; Manitpisitkul, P. et al., 2004; Singh S. et al., 2006).

[3] = test system: capsaicin-induced secondary allodynia; assay: Capsaicin-induced secondary allodynia in rat; format: in vivo; details: 30 μmol/kg p.o., 2 hours prior to capsaicin, 90 min after capsaicin challenge
Procedure: Capsaicin (5 nmols/50 μl/paw) was injected in the plantar surface of the glabrous skin of the right paw of rats anesthetized with diethyl ether (Chaplan et al., 1994). Compounds 6c and 6d were orally administrated 2 hours prior to capsaicin injection. Tactile allodynia was evaluated 90 min after capsaicin challenge. In a more extended study, compounds 6c and 6d were tested against capsaicin-induced secondary allodynia in rats.

[4] = value from Ref. 8 (Rami et al. 2006); cited from earlier work

T2 sequence (O35433 whole entry): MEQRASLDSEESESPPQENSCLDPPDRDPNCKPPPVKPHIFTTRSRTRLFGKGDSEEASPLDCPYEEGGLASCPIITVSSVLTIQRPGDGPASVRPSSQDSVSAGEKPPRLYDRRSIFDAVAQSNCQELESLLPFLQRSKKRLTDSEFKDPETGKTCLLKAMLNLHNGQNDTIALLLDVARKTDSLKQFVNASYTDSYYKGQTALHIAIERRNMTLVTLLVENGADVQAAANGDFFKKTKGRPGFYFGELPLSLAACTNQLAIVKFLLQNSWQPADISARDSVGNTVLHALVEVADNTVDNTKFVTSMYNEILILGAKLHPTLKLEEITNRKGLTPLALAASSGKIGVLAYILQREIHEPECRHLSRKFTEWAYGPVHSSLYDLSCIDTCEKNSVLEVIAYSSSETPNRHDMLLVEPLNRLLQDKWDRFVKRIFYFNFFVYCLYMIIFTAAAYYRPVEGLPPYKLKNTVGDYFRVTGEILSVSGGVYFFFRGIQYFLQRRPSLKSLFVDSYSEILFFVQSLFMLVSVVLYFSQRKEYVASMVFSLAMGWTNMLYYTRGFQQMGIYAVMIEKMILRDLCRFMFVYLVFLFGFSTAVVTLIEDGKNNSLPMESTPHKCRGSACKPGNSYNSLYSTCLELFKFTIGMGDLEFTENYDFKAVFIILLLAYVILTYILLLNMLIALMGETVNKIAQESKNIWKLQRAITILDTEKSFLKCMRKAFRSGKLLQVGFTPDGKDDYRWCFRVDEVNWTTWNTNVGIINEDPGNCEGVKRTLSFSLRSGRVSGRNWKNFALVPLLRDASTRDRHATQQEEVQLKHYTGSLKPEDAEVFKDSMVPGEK
T1 sequence (O35433 whole entry): as above

COc1cc(CNC(=O)NCc2ccc(C(F)(F)F)cc2)c(Cl)cc1OCC(O)CO (racemic) [Compound 6c, 1-[4-(2,3-Dihydroxypropoxy)-2-chloro-5-methoxybenzyl]-3-[4-(trifluoromethyl)-benzyl]urea]
IC50 [1]: 52000 nM | IC50 (TRPV1): 10.2 nM | Ki (vanilloid TRPV1 receptor): 60 nM | half-life [2]: 1.3 h | % of inhibition of the pro-allodinic effect of capsaicin [3]: 53.1%

COc1cc(CNC(=O)NCc2ccc(C(F)(F)F)cc2)c(Br)cc1OCC(O)CO (racemic) [Compound 6d, 1-[4-(2,3-Dihydroxypropoxy)-2-bromo-5-methoxybenzyl]-3-[4-(trifluoromethyl)-benzyl]urea]
IC50 [1]: 70000 nM | IC50 (TRPV1): 80 nM | Ki (vanilloid TRPV1 receptor): 86 nM | half-life [2]: 1.08 h | % of inhibition of the pro-allodinic effect of capsaicin [3]: 47.9%

COc1cc(CNC(=O)NCc2ccc(C(F)(F)F)cc2)c(Cl)cc1OC[C@H](O)CO [(R)-(−)6c, 1-[4-((R)-(−)-2,3-dihydroxypropoxy)-2-chloro-5-methoxybenzyl]-3-[4-(trifluoromethyl)-benzyl]urea]
IC50 (TRPV1): 7 nM | half-life [2]: 7.7 h

COc1cc(CNC(=O)NCc2ccc(C(F)(F)F)cc2)c(Br)cc1OC[C@H](O)CO [(R)-(−)6d, 1-[4-((R)-(−)-2,3-dihydroxypropoxy)-2-bromo-5-methoxybenzyl]-3-[4-(trifluoromethyl)-benzyl]urea]
IC50 (TRPV1): 53 nM | half-life [2]: 4.43 h

COc1cc(CNC(=O)NCc2ccc(C(F)(F)F)cc2)c(Cl)cc1OC[C@@H](O)CO [(S)-(+)6c]
IC50 (TRPV1): > 1000 nM

COc1cc(CNC(=O)NCc2ccc(C(F)(F)F)cc2)c(Br)cc1OC[C@@H](O)CO [(S)-(+)6d]
IC50 (TRPV1): > 1000 nM

COc1cc(CNC(=O)NCc2ccc(C(C)(C)C)cc2)c(Cl)cc1OCCO [Compound 6a, 1-[4-(2-hydroxyethoxy)-2-chloro-5-methoxybenzyl]-3-[4-(tert-butyl)-benzyl]urea]
IC50 (TRPV1): 859 nM | Ki (vanilloid TRPV1 receptor): 175 nM

COc1cc(CNC(=O)NCc2ccc(C(F)(F)F)cc2)c(Cl)cc1OCCCO [Compound 6e]
IC50 (TRPV1): > 1000 nM | Ki (vanilloid TRPV1 receptor): > 1000 nM

COc1cc(CNC(=O)NCc2ccc(C(C)(C)C)cc2)c(Cl)cc1OCCCO [Compound 6f]
IC50 (TRPV1): 500 nM | Ki (vanilloid TRPV1 receptor): 253 nM

COc1cc(CNC(=O)NCc2ccc(C(F)(F)F)cc2)c(Cl)cc1OCCO [Compound 6g, 1-[4-(2-hydroxyethoxy)-2-chloro-5-methoxybenzyl]-3-[4-(trifluoromethyl)-benzyl]urea]
IC50 (TRPV1): 164 nM | Ki (vanilloid TRPV1 receptor): > 1000 nM

COc1cc(CNC(=O)NCc2ccc(C(F)(F)F)cc2)c(Br)cc1OCCO [Compound 6h, 1-[4-(2-Hydroxyethoxy)-2-bromo-5-methoxybenzyl]-3-[4-(trifluoromethyl)-benzyl]urea]
IC50 (TRPV1): 119 nM | Ki (vanilloid TRPV1 receptor): 150 nM

COc1cc(CNC(=O)NCc2ccc(C(F)(F)F)cc2)c(-c2ccccc2)cc1OCC(O)CO (stereo not shown) [Compound 6i, 1-[4-(2,3-dihydroxypropoxy)-2-phenyl-5-methoxybenzyl]-3-[4-(trifluoromethyl)-benzyl]urea]
IC50 (TRPV1): > 1000 nM | Ki (vanilloid TRPV1 receptor): 273 nM

COc1cc(CNC(=O)NCc2ccc(C(F)(F)F)cc2)c(-c2cccnc2)cc1OCC(O)CO (stereo not shown) [Compound 6l, 1-[4-(2,3-dihydroxypropoxy)-2-(pyridin-3-yl)-5-methoxybenzyl]-3-[4-(trifluoromethyl)-benzyl]urea]
IC50 (TRPV1): > 1000 nM | Ki (vanilloid TRPV1 receptor): 172 nM

COc1cc(CNC(=O)NCc2ccc(C(F)(F)F)cc2)c(-c2ccc(Cl)cc2)cc1OC[C@H](O)CO [Compound 6m, 1-[4-(2,3-dihydroxypropoxy)-2-(4-chloro)phenyl-5-methoxybenzyl]-3-[4-(trifluoromethyl)-benzyl]urea]
melting point: 174 °C | Ki (vanilloid TRPV1 receptor): 117 nM

O=C(Nc1ccccc1Br)N[C@@H]1CCN(c2ccc(C(F)(F)F)cn2)C1 [SB-705498, reference compound]
IC50 [1]: 20300 nM | Pharmacokinetics in Rat Oral t1/2 [4]: 180 ^Ref. 8 min

Reference: patent US7750049B2, “O-substituted-dibenzyl urea-derivatives as TRPV1 receptor antagonists” (Pharmeste S.R.L., priority 2006, dated 2010)
